Values quoted from earlier work as cited in US20200061095A1, “Compounds for the Treatment of Systemic Insulin Resistance Disorders and the Use Thereof” (Galectin Sciences, LLC, priority 2017, published 2020).

Legend:
lung fibrosis = conditions: pulmonary administration, intra-tracheal instillation or nebulizers
Galectin 3 = Galectin 3 (Homo sapiens, UniProt P17931); conditions: reported
Galectin 3, sequence (P17931 whole entry, species assumed): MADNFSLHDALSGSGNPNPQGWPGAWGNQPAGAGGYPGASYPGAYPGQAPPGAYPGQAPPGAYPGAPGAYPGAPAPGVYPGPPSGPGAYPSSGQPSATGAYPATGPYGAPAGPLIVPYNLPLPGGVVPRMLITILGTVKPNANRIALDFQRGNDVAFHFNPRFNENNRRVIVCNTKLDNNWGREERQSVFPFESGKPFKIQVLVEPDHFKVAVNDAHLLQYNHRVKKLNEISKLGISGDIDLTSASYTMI

binding to Galectin 3 (Galectin 3): bind to Galectin 3
Compound: OC[C@H]1O[C@@H](S[C@@H]2O[C@H](CO)[C@H](O)[C@H](n3cc(-c4cccc(F)c4)nn3)[C@H]2O)[C@H](O)[C@@H](n2cc(-c3cccc(F)c3)nn2)[C@H]1O [TD-139]
efficacy in mouse model of lung fibrosis (lung fibrosis): effective
